According to US20090088482A1, “Compositions and Methods For Treating Heart Failure” (The Trustees Of Columbia University In The City New York, priority 2003, published 2009):

Key:
[1] = tested on: rats with chronic heart failure induced by coronary artery ligation; assay: Ex vivo left ventricular pressure-volume relationship (LVPVR) tracings (Example 2); format: in vivo; settings: 2 mg/kg/day oral, 8 weeks, untreated CHF 1.11
Method: (§1) Chronic heart failure was induced by coronary artery ligation in rats, and was confirmed by echocardiography, three weeks post-surgery. Three groups of rats were studied: (1) Chronic heart failure without clenbuterol (n=7); (2) chronic heart failure+clenbuterol (2 mg/kg/day; n=5); and (3) rats after sham operation (n=11). After 8 weeks of oral clenbuterol therapy, echocardiography and direct hemodynamic monitoring were performed. Rat hearts were then harvested for ex vivo left ventricular pressure-volume relationship (LVPVR) tracings, histologic (trichrome) sections, and molecular assays. Western analysis for myocardial calcium-handling proteins (ryanodine receptors (RyR), SERCA2a, phospholamban, and calcium-sodium exchanger) was assessed by densitometry.

[2] = tested on: sarcoplasmic reticulum calcium-ATPase (SERCA2a); assay: Western blot of calcium-handling protein expression: SERCA2a (Example 5); format: in vivo, Sprague-Dawley rats; settings: FIG. 6; not different from Sham
Method: (§2) Five rat hearts from each group (HF, Clen, Meto, Clen+Meto, and Sham) were randomly selected and used for analysis of calcium-handling protein expression levels. Lysates of LV tissue were obtained with the use of a homogenizer (Brinkmann Instruments, Westbury, N.Y.). Approximately 150 mg of heart tissue was placed in a seven-fold volume of lysis buffer (20 mM/L Na-HEPES, 4 mM/L EGTA, 1 mM/L DTT, pH 7.4) in the presence of proteinase inhibitors (0.1 mM/L leupeptin and 0.3 mM/L PMSF). The protein concentration was determined using a protein assay kit (Bio-Rad Laboratories, Hercules, Calif.). Samples (50 μg) were denatured at 95° C. and size-fractionated using SDS-polyacrylamide gel electrophoresis (PAGE) under reducing conditions. SDS-PAGE was performed using 7.5% separating and 5% stacking gels for SERCA2a and 5% separating and 4% stacking gels for RyR. Electrophoresis was performed in a Miniprotean II cell (Bio-Rad Laboratories, Hercules, Calif.) followed by transfer of proteins (using 34 V overnight at 4° C.) onto nitrocellulose in a mini trans-blot transfer cell (Bio-Rad Laboratories, Hercules, Calif.) filled with transfer buffer (25 m/L Tris-HCl, pH 8.3, 192 mM/L glycine and 20% methanol). […]
(§3) Optical densities of protein level signals were quantified with the use of a laser scanning densitometer (Molecular Dynamics, Palo Alto, Calif.) in a blinded manner. […]

[3] = ten of 15 LVAD patients; with ACE inhibition, β-1 selective blockade, spironolactone; cited from earlier work
SERCA2a = assay: Western analysis of myocardial calcium-handling proteins by densitometry: SERCA2a (Example 2); format: in vivo, rats; settings: 2 mg/kg/day oral, 8 weeks, untreated CHF 1.7±0.5, Sham 2.2±0.4
Method: as §1

[4] = tested on: rats with chronic heart failure induced by coronary artery ligation; assay: Echocardiography and direct hemodynamic monitoring in rats with chronic heart failure induced by coronary artery ligation (Example 2); format: in vivo; settings: 2 mg/kg/day oral, 8 weeks
Method: as §1

[5] = tested on: rats with HF induced by LAD ligation; assay: Body weight and heart weight in LAD ligation ischemic HF rats (Example 5); format: in vivo, Sprague-Dawley rats; settings: mean ± SD, 9 weeks oral therapy; for Heart Wt: HF 2.16 ± 0.33, Sham 1.72 ± 0.09; for % Δ Weight (percentage change in pre-treatment to post-treatment weights): clenbuterol 1 mg/kg/day, metoprolol 200 mg/kg/day, HF 33.8 ± 4.79, Sham 76.1 ± 19.3
Method: All studies were performed in compliance with the Guide for the Care and Use of Laboratory Animals (NRC 1996) and were approved by the Institutional Animal Care and Use Committee of Columbia University. Sprague-Dawley rats (Charles River Laboratories, Wilmington, Mass.) weighing 250 to 300 g were used for all experiments. Food and water were provided ad libitum, with rats housed in a light- and temperature-controlled room over the 12-week study period.
After the induction of general anesthesia with the use of intraperitoneal ketamine (75 mg/kg; Fort Dodge Animal Health, Fort Dodge, Iowa) and xylazine (5 mg/kg; Lloyd Laboratories, Shenandoah, Iowa), endotracheal intubation with a 16-guage angiocathether was performed. Rats were supported by a small animal ventilator (Harvard Apparatus, Holliston, Mass.). After performing a left thoracotomy, a sham operation (pericardiectomy only) or left anterior descending artery (LAD) ligation with a 7-0 polypropylene suture was performed. Subsequently, a chest tube (16-guage angiocathether) was placed in the left pleural space prior to closing the incision in three layers. Finally, the chest tube was used to aspirate the pleural cavity and removed after extubation.
A total of 69 rats were used in this study. LAD ligation surgery was performed in 60 rats, of which 37 (62%) survived three weeks post-surgery. Another 9 rats underwent a sham operation (group Sham), with 7 (78%) survivors. Three weeks post-operatively, echocardiography was performed to establish the baseline level of HF (as measured by fractional shortening). The LAD ligation rats were divided into 4 treatment groups matched for the degree of HF and were randomly assigned to one of the following therapies for 9 additional weeks: (1) rats receiving no therapy (group HF, n=9); (2) rats receiving high-dose clenbuterol at 1 mg/kg/day (group Clen, n=9); (3) rats receiving high-dose metoprolol at 200 mg/kg/day (group Meto, n=9); or (4) rats receiving concurrent high-dose clenbuterol at 1 mg/kg/day and high-dose metoprolol therapy at 200 mg/kg/day (group Clen+Meto, n=10).
Clenbuterol (ICN Biomedicals, Aurora, Ohio) was sonicated and subsequently dissolved in the drinking water. Metoprolol (Sigma-Aldrich, St. Louis, Mo.) was dissolved in the drinking water either alone or in combination with clenbuterol for the Clen+Meto group. The concentrations of clenbuterol and metoprolol were varied to keep the study drug dose delivered within a narrow therapeutic window based on daily water consumption. […]
Body weight was measured pre-surgery and 3 and 12 weeks post-surgery. Heart weight was measured immediately after the heart was excised. The ratio of body weight to heart weight was subsequently calculated.

ryanodine receptor (RyR) = assay: Western blot of calcium-handling protein expression: RyR (Example 5); format: in vivo, Sprague-Dawley rats; settings: FIG. 6; not different from Sham
Method: as §2, §3

| SMILES | LVPVR volume for a given LV pressure=15 mmHg [1] [mL] | SERCA2a protein expression level relative to tubulin, versus HF group [2] | rate of myocardial recovery (LVAD explantation for recovery) [3] [%] | Protein level of SERCA2a (SERCA2a) | LVEDP ([4]; untreated CHF 27±5, Sham 12±3) [mmHg] | LV fractional area change ([4]; untreated CHF 35±3, Sham 53±2) [%] | LV pressure ([4]; untreated CHF 94±2.8, Sham 114±3.3) [mmHg] | LVdP/dt ([4]; untreated CHF 2,570±384, Sham 3,728±193) | Heart Wt [5] | % Δ Weight (percentage change in pre-treatment to post-treatment weights) [5] | RyR protein expression level relative to tubulin, versus HF group (ryanodine receptor (RyR)) |
| --- | --- | --- | --- | --- | --- | --- | --- | --- | --- | --- | --- |
| CC(C)(C)NCC(O)c1cc(Cl)c(N)c(Cl)c1 (stereo not shown) [Clen, clenbuterol] | 1.02 | significantly improved | 67 | 2.0±0.2 | 15±6 | 42±1 | 100±6 | 3,250±325 mmHg/s | 2.64 ± 0.41 § † gm | 49.9 ± 7.18 † % | significantly improved |
| COCCc1ccc(OCC(O)CNC(C)C)cc1 (stereo not shown) [Meto, metoprolol] | – | – | – | – | – | – | – | – | 2.17 ± 0.34 gm | 32.3 ± 7.16 % | – |
